pIC50, pKi: −log10 of the molar value. “And” between values parts separate entries of the source, which are not always exact repeats. Equal entries are not always repeated.
Biological target: Alpha-glucosidase MAL12 (Saccharomyces cerevisiae (strain ATCC 204508 / S288c), UniProt P53341)
Assay: Inhibition Assay
Conditions: pH 7
Method: In this study, the inhibition assay of yeast enzyme was performed in 100 mM phosphate buffer pH 7.0 at 25°C with minor changes, according to the methods reported previously. [Saijyo et al., J. Oleo. […] After centrifugation, the supernatant was dialyzed against 10 mM potassium phosphate buffer (pH 7.0) containing 0.

Chain of Alpha-glucosidase MAL12 (P53341 whole entry): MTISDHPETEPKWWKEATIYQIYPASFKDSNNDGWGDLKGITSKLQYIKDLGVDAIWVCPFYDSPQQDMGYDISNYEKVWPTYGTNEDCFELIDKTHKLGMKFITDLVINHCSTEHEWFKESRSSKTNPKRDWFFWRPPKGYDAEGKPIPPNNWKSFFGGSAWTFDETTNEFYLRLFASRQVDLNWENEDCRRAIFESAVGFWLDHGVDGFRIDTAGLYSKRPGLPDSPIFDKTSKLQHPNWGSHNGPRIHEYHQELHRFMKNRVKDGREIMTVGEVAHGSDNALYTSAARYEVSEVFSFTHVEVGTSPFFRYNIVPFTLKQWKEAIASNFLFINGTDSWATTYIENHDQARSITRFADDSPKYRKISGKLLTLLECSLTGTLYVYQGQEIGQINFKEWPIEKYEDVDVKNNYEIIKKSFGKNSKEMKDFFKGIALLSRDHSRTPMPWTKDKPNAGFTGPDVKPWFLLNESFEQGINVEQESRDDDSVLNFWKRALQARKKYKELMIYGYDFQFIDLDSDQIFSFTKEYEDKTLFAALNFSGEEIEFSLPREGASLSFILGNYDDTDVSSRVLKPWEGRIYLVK

| pIC50 | pKi | SMILES |
| --- | --- | --- |
| 4.13 | 4.15 and 3.77 | O=c1[nH]c2c(c(=O)[nH]1)C(C(O)C(O)C(O)C(O)CO)c1c([nH]c(=O)[nH]c1=O)N2c1ccc(O)cc1 (stereo not drawn) [α-Gl inhibitor, C1] |
| 4.60 | 4.52 and 3.89 | O=c1[nH]c2c(c(=O)[nH]1)C(C(O)C(O)C(O)C(O)CO)c1c([nH]c(=O)[nH]c1=O)N2c1ccc(Br)cc1 (stereo not drawn) [α-Gl inhibitor, C2] |

| SMILES | pIC50 | pKi |
| --- | --- | --- |
| Nc1ccc(S(=O)(=O)c2ccc(N3c4[nH]c(=O)[nH]c(=O)c4C(C(O)C(O)C(O)C(O)CO)c4c3[nH]c(=O)[nH]c4=O)cc2)cc1 (stereo not drawn) [α-Gl inhibitor, C3] | 5.02 | 4.85 |
